From patent US10906940B2, “Antimicrobial peptides, pharmaceutical compositions, and methods of use thereof” (priority 2014, dated 2021)
Values after ≈ are worked out from the molar mass of the structure shown. Where a SMILES comes first, the peptide text is derived from it. Bridges are numbered along the chain shown (N, C = ends). [ ]: non-standard residue; d: D form. The star is where a group is joined. Tridecanoyl = CCCCCCCCCCCCC(=O)*; Undecanoyl = CCCCCCCCCCC(=O)*; dOrn = NCCC[C@@H](N)C(=O)O

Tests used:
[1] = system: Salmonella CVM 40118 (oxa-1); type: cell-based
Text: (§1) The same MIC assay as in Example 6 was used to determine the antimicrobial susceptibility of Compound A, L-form (FIG. 15), and several variants. One variant was Compound A, D-form, with D-Lysine at position 7. Compound B is a variant in the fatty acid chain, with a fatty acid chain composition of C15H29O, and having D-Lys at position 7. Compound C is a variant in the fatty acid chain with a fatty acid chain composition of C11H21O, and having D-Lys at position 7. Variant D is a sequence variant with Phe at position 6 of the cyclic peptide, and having D-Lys at position 7. All variants were chemically synthesized.

[2] = system: Salmonella CVM 40119 (tem 12); type: cell-based
Text: as §1

[3] = system: Serratia marcescens SAMN04022954; type: cell-based; conditions: SAMN04022954
Text: as §1

[4] = system: Enterobacter cloacae SBJ-9395; type: cell-based; conditions: SBJ-9395
Text: as §1

[5] = system: Serratia marcescens SBJ-9047; type: cell-based; conditions: SBJ-9047
Text: as §1

[6] = system: Serratia marcescens SBJ-8283; type: cell-based; conditions: SBJ-8283
Text: as §1

[7] = system: Serratia marcescens SAMN 04276914; type: cell-based; conditions: SAMN 04276914
Text: as §1

[8] = system: Serratia marcescens SAMN 04276915; type: cell-based; conditions: SAMN 04276915
Text: as §1

[9] = system: Salmonella CVM 1290 (cmy2); type: cell-based
Text: as §1

S. aureus 12 = assay: microbe, parasite or virus in culture; type: cell-based, Staphylococcus aureus; conditions: 12
Text: as §1

S. aureus 4 = assay: microbe, parasite or virus in culture; type: cell-based, Staphylococcus aureus; conditions: 4
Text: as §1

S. aureus 8 = assay: microbe, parasite or virus in culture; type: cell-based, Staphylococcus aureus; conditions: 8
Text: as §1

S. aureus 6 = assay: microbe, parasite or virus in culture; type: cell-based, Staphylococcus aureus; conditions: 6
Text: as §1

S. aureus 19 = assay: microbe, parasite or virus in culture; type: cell-based, Staphylococcus aureus; conditions: 19
Text: as §1

S. aureus 2 = assay: microbe, parasite or virus in culture; type: cell-based, Staphylococcus aureus; conditions: 2
Text: as §1

S. aureus 10 = assay: microbe, parasite or virus in culture; type: cell-based, Staphylococcus aureus; conditions: 10
Text: as §1

S. aureus 14 = assay: microbe, parasite or virus in culture; type: cell-based, Staphylococcus aureus; conditions: 14
Text: as §1

E. coli CVM 15104 (shv3) = type: cell-based, Escherichia coli
Text: as §1

[10] = system: E. coli CVM 40139 (fox-1); type: cell-based, Escherichia coli
Text: as §1

[11] = system: E. coli CVM 40143 (act-1); type: cell-based, Escherichia coli
Text: as §1

[12] = system: E. coli CVM 40147 (vim-2); type: cell-based, Escherichia coli
Text: as §1

[13] = system: E. coli CVM 40127 (oxa-2); type: cell-based, Escherichia coli
Text: as §1

[14] = system: E. coli CVM 40126 (oxa-1); type: cell-based, Escherichia coli
Text: as §1

[15] = system: E. coli CVM 40131 (ctx-m-2); type: cell-based, Escherichia coli
Text: as §1

E. coli CVM40148 (veb-1) = type: cell-based, Escherichia coli
Text: as §1

[16] = system: E. coli CVM 40136 (tem 52b); type: cell-based, Escherichia coli
Text: as §1

[17] = system: E. coli CVM 40137 (DHA-1); type: cell-based, Escherichia coli
Text: as §1

E. coli CVM40146 (vim-1) = type: cell-based, Escherichia coli
Text: as §1

[18] = system: E. coli CVM 40130 (oxa-9); type: cell-based, Escherichia coli
Text: as §1

[19] = system: E. coli CVM 40138 (LCR-1); type: cell-based, Escherichia coli
Text: as §1

[20] = system: E. coli CVM 40134 (ctx-m-15); type: cell-based, Escherichia coli
Text: as §1

E. coli CVM 15103 (tem2) = type: cell-based, Escherichia coli
Text: as §1

[21] = system: E. coli CVM 40128 (oxa-7); type: cell-based, Escherichia coli
Text: as §1

[22] = system: E. coli CVM 40129 (oxa-5); type: cell-based, Escherichia coli
Text: as §1

[23] = system: E. coli CVM 40133 (ctx-m-14); type: cell-based, Escherichia coli
Text: as §1

E. coli CVM 15100 (mir1) = type: cell-based, Escherichia coli
Text: as §1

[24] = system: E. coli CVM 40141 (imp-1); type: cell-based, Escherichia coli
Text: as §1

[25] = system: E. coli CVM 35778 (ctx-m-2); type: cell-based, Escherichia coli
Text: as §1

[26] = system: E. coli CVM 40132 (ctx-m-9); type: cell-based, Escherichia coli
Text: as §1

[27] = system: E. cloacae CVM 15101 (P99); type: cell-based, Enterobacter cloacae
Text: as §1

SMILES | MIC [1] [µg/mL] | MIC [2] [µg/mL] | MIC [3] [µg/mL] | MIC [4] [µg/mL] | MIC [5] [µg/mL] | MIC [6] [µg/mL] | MIC [7] [µg/mL] | MIC [8] [µg/mL] | MIC [9] [µg/mL] | MIC (S. aureus 12) [µg/mL] | MIC (S. aureus 4) [µg/mL] | MIC (S. aureus 8) [µg/mL] | MIC (S. aureus 6) [µg/mL] | MIC (S. aureus 19) [µg/mL] | MIC (S. aureus 2) [µg/mL] | MIC (S. aureus 10) [µg/mL] | MIC (S. aureus 14) [µg/mL] | MIC (E. coli CVM 15104 (shv3)) [µg/mL] | MIC [10] [µg/mL] | MIC [11] [µg/mL] | also measured
CCCCCCCCCCC(=O)N[C@H](CCCN)C(=O)N[C@H](C(=O)N[C@@H]1C(=O)N[C@H](CCCN)C(=O)N[C@@H](CO)C(=O)N[C@@H](Cc2ccc(O)cc2)C(=O)N[C@H](CCCCN)C(=O)N[C@H](CO)C(=O)N[C@@H]([C@@H](C)CC)C(=O)N2CCC[C@H]2C(=O)N[C@@H]([C@@H](C)CC)C(=O)N2CCC[C@H]2C(=O)N[C@@H]([C@@H](C)CC)C(=O)O[C@@H]1C)C(C)C [Compound C] (Undecanoyl-[dOrn]VT[dOrn]SY[dK][dS]IPIPI; ester 3-C; N-terminus assumed) | 4 (≈ 2.51 µM) | 8 (≈ 5.01 µM) | 64 (≈ 40.1 µM) | 8 (≈ 5.01 µM) | 64 (≈ 40.1 µM) | 32 (≈ 20 µM) | 64 (≈ 40.1 µM) | ≥128 | 16 (≈ 10 µM) | 8 (≈ 5.01 µM) | 8 (≈ 5.01 µM) | 8 (≈ 5.01 µM) | 8 (≈ 5.01 µM) | 8 (≈ 5.01 µM) | 8 (≈ 5.01 µM) | 8 (≈ 5.01 µM) | 8 (≈ 5.01 µM) | 8 (≈ 5.01 µM) | 8 (≈ 5.01 µM) | 8 (≈ 5.01 µM) | MIC [12]: 16 µg/mL (≈ 10 µM); MIC [13]: 8 µg/mL (≈ 5.01 µM); MIC [14]: 8 µg/mL (≈ 5.01 µM); MIC [15]: 8 µg/mL (≈ 5.01 µM); MIC (E. coli CVM40148 (veb-1)): 8 µg/mL (≈ 5.01 µM); MIC [16]: 8 µg/mL (≈ 5.01 µM); MIC [17]: 8 µg/mL (≈ 5.01 µM); MIC (E. coli CVM40146 (vim-1)): 8 µg/mL (≈ 5.01 µM); MIC [18]: 8 µg/mL (≈ 5.01 µM); MIC [19]: 8 µg/mL (≈ 5.01 µM); MIC [20]: 8 µg/mL (≈ 5.01 µM); MIC (E. coli CVM 15103 (tem2)): 8 µg/mL (≈ 5.01 µM); MIC [21]: 8 µg/mL (≈ 5.01 µM); MIC [22]: 8 µg/mL (≈ 5.01 µM); MIC [23]: 8 µg/mL (≈ 5.01 µM); MIC (E. coli CVM 15100 (mir1)): 8 µg/mL (≈ 5.01 µM); MIC [24]: 32 µg/mL (≈ 20 µM); MIC [25]: 16 µg/mL (≈ 10 µM); MIC [26]: 8 µg/mL (≈ 5.01 µM); MIC [27]: 8 µg/mL (≈ 5.01 µM)
CCCCCCCCCCCCC(=O)N[C@H](CCCN)C(=O)N[C@H](C(=O)N[C@@H]1C(=O)N[C@H](CCCN)C(=O)N[C@@H](CO)C(=O)N[C@@H](Cc2ccccc2)C(=O)N[C@H](CCCCN)C(=O)N[C@H](CO)C(=O)N[C@@H]([C@@H](C)CC)C(=O)N2CCC[C@H]2C(=O)N[C@@H]([C@@H](C)CC)C(=O)N2CCC[C@H]2C(=O)N[C@@H]([C@@H](C)CC)C(=O)O[C@@H]1C)C(C)C [Variant D] (Tridecanoyl-[dOrn]VT[dOrn]SF[dK][dS]IPIPI; ester 3-C; N-terminus assumed) | 8 (≈ 4.97 µM) | 8 (≈ 4.97 µM) | ≥128 | 32 (≈ 19.9 µM) | ≥128 | 32 (≈ 19.9 µM) | 64 (≈ 39.8 µM) | ≥128 | 8 (≈ 4.97 µM) | 8 (≈ 4.97 µM) | 8 (≈ 4.97 µM) | 8 (≈ 4.97 µM) | 8 (≈ 4.97 µM) | 8 (≈ 4.97 µM) | 8 (≈ 4.97 µM) | 8 (≈ 4.97 µM) | 8 (≈ 4.97 µM) | 16 (≈ 9.95 µM) | 8 (≈ 4.97 µM) | 16 (≈ 9.95 µM) | MIC [12]: 16 µg/mL (≈ 9.95 µM); MIC [13]: 8 µg/mL (≈ 4.97 µM); MIC [14]: 8 µg/mL (≈ 4.97 µM); MIC [15]: 8 µg/mL (≈ 4.97 µM); MIC (E. coli CVM40148 (veb-1)): 8 µg/mL (≈ 4.97 µM); MIC [16]: 16 µg/mL (≈ 9.95 µM); MIC [17]: 8 µg/mL (≈ 4.97 µM); MIC (E. coli CVM40146 (vim-1)): 8 µg/mL (≈ 4.97 µM); MIC [18]: 8 µg/mL (≈ 4.97 µM); MIC [19]: 8 µg/mL (≈ 4.97 µM); MIC [20]: 8 µg/mL (≈ 4.97 µM); MIC (E. coli CVM 15103 (tem2)): 8 µg/mL (≈ 4.97 µM); MIC [21]: 8 µg/mL (≈ 4.97 µM); MIC [22]: 8 µg/mL (≈ 4.97 µM); MIC [23]: 8 µg/mL (≈ 4.97 µM); MIC (E. coli CVM 15100 (mir1)): 8 µg/mL (≈ 4.97 µM); MIC [24]: 16 µg/mL (≈ 9.95 µM); MIC [25]: 16 µg/mL (≈ 9.95 µM); MIC [26]: 8 µg/mL (≈ 4.97 µM); MIC [27]: 8 µg/mL (≈ 4.97 µM)
